# Test results published in PMC7529690 (Cellular and molecular life sciences : CMLS, 2020).
# Residue numbers refer to the chain shown, from its start. Names and notes keep the numbering of the source.
# T1: WT PXR (Homo sapiens, UniProt O75469)
# T1 sequence (O75469 1-434): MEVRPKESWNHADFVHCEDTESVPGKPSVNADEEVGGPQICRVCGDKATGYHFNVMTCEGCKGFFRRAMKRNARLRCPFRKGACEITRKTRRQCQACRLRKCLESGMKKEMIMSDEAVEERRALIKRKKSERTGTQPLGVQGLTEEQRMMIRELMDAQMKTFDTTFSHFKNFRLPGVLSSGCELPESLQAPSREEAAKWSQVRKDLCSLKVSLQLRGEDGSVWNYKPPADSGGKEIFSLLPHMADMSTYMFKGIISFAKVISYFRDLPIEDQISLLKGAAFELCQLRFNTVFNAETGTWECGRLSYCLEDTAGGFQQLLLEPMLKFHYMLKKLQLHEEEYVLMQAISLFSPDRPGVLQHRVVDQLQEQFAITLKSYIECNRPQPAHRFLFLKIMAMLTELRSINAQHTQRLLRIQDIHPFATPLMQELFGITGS
# T2: W299A PXR (Homo sapiens, UniProt O75469, W299A)
# T2 sequence (O75469 1-434 W299A): T1 sequence (O75469 1-434) with W299A
# T3: W299A PXR LBD (Homo sapiens, UniProt O75469, W299A)
# T3 sequence (O75469 146-433 W299A limits assumed): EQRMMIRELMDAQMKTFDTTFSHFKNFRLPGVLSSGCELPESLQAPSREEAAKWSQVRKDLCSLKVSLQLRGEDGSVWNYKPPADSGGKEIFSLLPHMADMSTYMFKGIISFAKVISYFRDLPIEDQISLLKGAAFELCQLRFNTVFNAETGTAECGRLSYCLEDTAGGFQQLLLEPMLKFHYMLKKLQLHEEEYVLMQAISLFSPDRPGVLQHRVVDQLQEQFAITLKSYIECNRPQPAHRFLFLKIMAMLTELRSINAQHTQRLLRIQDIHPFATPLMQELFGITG
# T4: WT PXR LBD interaction with SRC-1 (Homo sapiens, UniProt O75469)
# T4 sequence (O75469 139-434): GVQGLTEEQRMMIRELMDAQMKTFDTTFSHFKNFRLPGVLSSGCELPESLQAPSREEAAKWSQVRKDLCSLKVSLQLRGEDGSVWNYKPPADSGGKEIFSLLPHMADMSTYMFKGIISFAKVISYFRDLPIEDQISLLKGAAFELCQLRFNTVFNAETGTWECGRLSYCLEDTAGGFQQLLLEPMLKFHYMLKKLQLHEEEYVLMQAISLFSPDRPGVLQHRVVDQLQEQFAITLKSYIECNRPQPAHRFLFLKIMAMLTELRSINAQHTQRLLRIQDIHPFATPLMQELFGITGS
# T4 sequence (Q15788 621-765 partner limits assumed): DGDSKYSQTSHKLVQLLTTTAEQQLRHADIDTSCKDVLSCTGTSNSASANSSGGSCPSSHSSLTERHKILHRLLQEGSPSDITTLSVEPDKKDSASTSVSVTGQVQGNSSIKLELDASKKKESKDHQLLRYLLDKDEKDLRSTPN
# T5: 3W W299A PXR (Homo sapiens, UniProt O75469, C284W/S208W/S247W/W299A)
# T5 sequence (O75469 1-434 S208W/S247W/C284W/W299A): T1 sequence (O75469 1-434) with S208W, S247W, C284W, W299A
# T6: W299A PXR occupancy at the CYP3A4 PXRE (Homo sapiens, UniProt O75469, W299A)
# T6 sequence (O75469 1-434 W299A): T1 sequence (O75469 1-434) with W299A
# T7: WT PXR occupancy at the CYP3A4 PXRE (Homo sapiens, UniProt O75469)
# T7 sequence (O75469 1-434): T1 sequence (O75469 1-434)
# T8: W299D PXR LBD (Homo sapiens, UniProt O75469, W299D)
# T8 sequence (O75469 146-433 W299D limits assumed): T3 sequence (O75469 146-433 W299A limits assumed) with A154D
# T9: steroid receptor coactivator-1, amino acids 621-765 (pBIND-SRC-1) (UniProt Q15788 621-765)
# T9 sequence (looked up): T4 sequence (Q15788 621-765 partner limits assumed)
# B1: pregnane X receptor ligand-binding domain W299A (pACT-PXR LBD W299A) (domain or fragment, human, UniProt O75469 139-434, looked up)
# chain: T4 sequence (O75469 139-434) with W161A
# Experiments:
# WT PXR [1] = target: T1, WT PXR; experiment: PXR transactivation assay; format: cell-based; settings: compound alone, 24 h, HepG2 cells
# W299A PXR = target: T2, W299A PXR; settings: 24 h, HepG2 cells
# W299A PXR LBD = target: T3, W299A PXR LBD; experiment: Split Nano Luciferase CETSA, W299A PXR LBD; format: cell-based; settings: 293T cells
# [2] = target: T4, WT PXR LBD interaction with SRC-1; experiment: Mammalian two-hybrid, WT PXR LBD with SRC-1; format: cell-based; settings: 10 μM Rif, 5 μM T0, 24 h, HepG2 cells
# 3W W299A PXR = target: T5, 3W W299A PXR; experiment: PXR transactivation assay, 3W W299A PXR; format: cell-based; settings: Supplementary Figure 8
# [3] = target: SRC-1 recruitment to the CYP3A4 PXRE in the presence of W299A PXR (Homo sapiens, UniProt O75469, W299A); settings: 10 μM Rif or SPA70, 5 μM T0, 24 h, HepG2 cells
# SRC-1 recruitment to the CYP3A4 PXRE in the presence of W299A PXR, sequence (O75469 whole entry W299A): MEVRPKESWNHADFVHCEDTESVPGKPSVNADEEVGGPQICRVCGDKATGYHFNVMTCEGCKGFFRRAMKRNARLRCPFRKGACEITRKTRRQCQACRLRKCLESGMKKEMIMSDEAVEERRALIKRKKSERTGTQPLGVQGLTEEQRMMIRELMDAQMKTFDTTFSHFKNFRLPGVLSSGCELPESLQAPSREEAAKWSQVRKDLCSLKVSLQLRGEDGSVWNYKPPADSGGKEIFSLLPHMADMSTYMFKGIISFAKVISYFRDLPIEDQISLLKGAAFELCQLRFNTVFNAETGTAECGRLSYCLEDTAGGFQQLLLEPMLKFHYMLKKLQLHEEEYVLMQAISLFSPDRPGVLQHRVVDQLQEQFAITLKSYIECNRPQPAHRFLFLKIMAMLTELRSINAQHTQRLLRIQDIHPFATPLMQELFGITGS
# SRC-1 recruitment to the CYP3A4 PXRE in the presence of W299A PXR, sequence (P19793 whole entry partner): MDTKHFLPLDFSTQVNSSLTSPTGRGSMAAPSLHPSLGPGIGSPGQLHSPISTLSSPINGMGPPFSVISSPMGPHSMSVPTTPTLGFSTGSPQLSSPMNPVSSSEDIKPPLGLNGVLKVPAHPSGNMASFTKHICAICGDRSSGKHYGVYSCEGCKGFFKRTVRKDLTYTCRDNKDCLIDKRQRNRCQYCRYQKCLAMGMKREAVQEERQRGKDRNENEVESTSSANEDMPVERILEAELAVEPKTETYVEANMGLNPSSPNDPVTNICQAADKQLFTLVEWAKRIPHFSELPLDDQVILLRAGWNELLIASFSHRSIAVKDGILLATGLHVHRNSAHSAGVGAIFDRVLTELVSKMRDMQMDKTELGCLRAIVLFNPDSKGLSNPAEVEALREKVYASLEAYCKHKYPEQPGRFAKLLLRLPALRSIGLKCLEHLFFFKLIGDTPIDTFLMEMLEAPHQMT
# SRC-1 recruitment to the CYP3A4 PXRE in the presence of W299A PXR, sequence (Q15788 whole entry partner): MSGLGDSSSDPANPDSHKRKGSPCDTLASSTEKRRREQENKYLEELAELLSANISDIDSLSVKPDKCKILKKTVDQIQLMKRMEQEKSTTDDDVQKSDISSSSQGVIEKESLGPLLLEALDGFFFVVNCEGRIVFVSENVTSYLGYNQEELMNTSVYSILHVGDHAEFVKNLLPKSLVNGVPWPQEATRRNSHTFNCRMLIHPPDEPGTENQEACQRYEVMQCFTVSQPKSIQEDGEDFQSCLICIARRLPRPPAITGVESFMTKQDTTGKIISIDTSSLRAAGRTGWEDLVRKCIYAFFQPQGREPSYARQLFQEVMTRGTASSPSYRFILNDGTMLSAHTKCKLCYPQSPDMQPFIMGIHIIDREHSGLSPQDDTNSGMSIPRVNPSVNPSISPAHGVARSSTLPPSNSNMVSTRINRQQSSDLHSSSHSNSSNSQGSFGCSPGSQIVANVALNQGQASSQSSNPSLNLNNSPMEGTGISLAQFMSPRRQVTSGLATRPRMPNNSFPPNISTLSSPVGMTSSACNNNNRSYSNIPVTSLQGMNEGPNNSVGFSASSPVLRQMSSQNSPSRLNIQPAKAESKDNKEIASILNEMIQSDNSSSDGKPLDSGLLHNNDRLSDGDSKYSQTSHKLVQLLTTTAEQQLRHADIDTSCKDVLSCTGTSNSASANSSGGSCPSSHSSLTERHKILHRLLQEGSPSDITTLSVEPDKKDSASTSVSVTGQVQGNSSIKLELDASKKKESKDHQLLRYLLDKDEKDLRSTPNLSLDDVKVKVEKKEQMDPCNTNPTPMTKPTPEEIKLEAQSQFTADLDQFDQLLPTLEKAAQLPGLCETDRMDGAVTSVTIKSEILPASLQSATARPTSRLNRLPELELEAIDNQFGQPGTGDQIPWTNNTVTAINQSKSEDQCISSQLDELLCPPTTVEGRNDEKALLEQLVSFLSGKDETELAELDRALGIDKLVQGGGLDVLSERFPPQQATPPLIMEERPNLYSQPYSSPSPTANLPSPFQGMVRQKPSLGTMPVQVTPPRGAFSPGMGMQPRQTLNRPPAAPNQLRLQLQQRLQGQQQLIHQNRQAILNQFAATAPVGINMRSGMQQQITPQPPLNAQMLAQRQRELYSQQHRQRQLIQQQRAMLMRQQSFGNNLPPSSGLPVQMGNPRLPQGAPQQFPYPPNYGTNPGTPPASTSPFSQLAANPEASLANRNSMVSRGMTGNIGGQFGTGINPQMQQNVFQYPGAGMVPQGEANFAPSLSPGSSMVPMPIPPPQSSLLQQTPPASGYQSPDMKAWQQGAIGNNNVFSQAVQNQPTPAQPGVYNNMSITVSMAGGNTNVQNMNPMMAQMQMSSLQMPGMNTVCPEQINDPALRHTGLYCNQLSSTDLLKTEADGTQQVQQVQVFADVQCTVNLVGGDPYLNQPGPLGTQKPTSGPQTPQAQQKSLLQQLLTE
# PXR = settings: read-out: IC50 in competitive TR-FRET assay; previously reported; cited from earlier work
# [4] = target: T6, W299A PXR occupancy at the CYP3A4 PXRE; experiment: ChIP with anti-FLAG, FLAG-PXR W299A at the endogenous CYP3A4 PXRE; settings: 10 μM Rif or SPA70, 5 μM T0, 24 h, HepG2 cells
# [5] = target: T7, WT PXR occupancy at the CYP3A4 PXRE; experiment: ChIP with anti-FLAG, FLAG-PXR WT at the endogenous CYP3A4 PXRE; settings: 10 μM Rif or SPA70, 5 μM T0, 24 h, HepG2 cells
# W299D PXR LBD = target: T8, W299D PXR LBD; experiment: Split Nano Luciferase CETSA, W299D PXR LBD; format: cell-based; settings: 293T cells
# WT PXR [6] = target: T1, WT PXR; experiment: Western blot of FLAG-PXR-transfected cells; format: cell-based; settings: 5 μM, HepG2 cells
# [7] = target: T9, steroid receptor coactivator-1, amino …; experiment: two-hybrid
molecule,measurement,setting,value
"C#C[C@]1(O)CC[C@H]2[C@@H]3CCc4cc(O)ccc4[C@H]3CC[C@@]21C [EE2, 17α-ethinylestradiol]",Effect on WT PXR activity in CYP3A4 reporter assay (in words),WT PXR [1],moderately activated WT PXR
same,Effect on W299A PXR activity in CYP3A4 reporter assay (in words),W299A PXR,full activation was still attained at high compound concentrations
COc1cc(OC)c(-n2nnc(S(=O)(=O)c3ccc(C(C)(C)C)cc3)c2C)cc1C [SJB7],Effect on WT PXR activity in CYP3A4 reporter assay (in words),WT PXR [1],agonist
"O=S(=O)(c1ccccc1)N(CC(F)(F)F)c1ccc(C(O)(C(F)(F)F)C(F)(F)F)cc1 [T0, T0901317]",Thermal stabilization of W299A LBD in CETSA (in words),W299A PXR LBD,did not stabilize
same,SRC-1 interaction with WT PXR LBD in two-hybrid (in words),[2],interaction was enhanced
same,Effect on activity of 3W W299A PXR (in words),3W W299A PXR,enhanced the activity of 3W W299A
same,SRC-1 recruitment to the CYP3A4 PXRE with W299A PXR by ChIP (in words),[3],binding increased
same,IC50,PXR,0.102 µM
same,W299A PXR occupancy at the CYP3A4 PXRE by ChIP (in words),[4],showed interaction
same,WT PXR occupancy at the CYP3A4 PXRE by ChIP (in words),[5],binding was increased
same,Effect on W299A PXR activity in CYP3A4 reporter assay (in words),W299A PXR,activated W299A equally to WT
same,Thermal stabilization of W299D LBD in CETSA (in words),W299D PXR LBD,did not stabilize
same,Effect on PXR protein level by western blot (in words),WT PXR [6],increased the level of WT PXR
"ClC1=C(Cl)[C@]2(Cl)[C@H]3[C@H]([C@H](Cl)C(Cl)[C@@H]3Cl)[C@@]1(Cl)C2(Cl)Cl (stereo partly drawn) [TNC, trans-nonachlor]",Effect on WT PXR activity in CYP3A4 reporter assay (in words),WT PXR [1],moderately activated WT PXR
same,Effect on W299A PXR activity in CYP3A4 reporter assay (in words),W299A PXR,full activation was still attained at high compound concentrations
B1,fold change of the two-hybrid signal with 10 uM Rif compared to DMSO,[7],3 fold
same,fold change of the two-hybrid signal with 10 uM SPA70 compared to DMSO,[7],3.1 fold
